Source: paper PMC11189555, “Aryl amino acetamides prevent Plasmodium falciparum ring development via targeting the lipid-transfer protein PfSTART1” (Nature Communications, 2024)
Like-named read-outs stand apart in the source and are kept apart here.

Test system: PopD F7 M-833 resistant clone (PfSTART1 N309K)
Assay: Growth inhibition assay (72 h, LDH activity)
Assay type: cell-based, Plasmodium falciparum
Procedure, shortened: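 Synchronised ring-stage 3D7-derived clones (0.3-0.6% parasitemia, 2% haematocrit) grown 72 h in compound serial dilutions, some with 0, 0.25 or 2.5 mM glucosamine. Growth read as LDH activity after freeze-thaw (Malstat/NBT, A650), normalised to DMSO and uninfected RBC; EC50 from variable-slope log(inhibitor) fit.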

For `Cc1cc(Cl)c(S(=O)(=O)N2CCCC2)cc1OCC(=O)NC1CCCCC1` [M-833], the “Normalised to DMSO” value (M-833 0.0390625 uM, Pop D-F7 replicate 1) was 102.746, the “Normalised to DMSO” value (M-833 0.0390625 uM, Pop D-F7 replicate 3) was 104.013 and the “Normalised to DMSO” value (M-833 0.078125 uM, Pop D-F7 replicate 1) was 103.501. For the same molecule, the “Normalised to DMSO” value (M-833 0.078125 uM, Pop D-F7 replicate 3) was 102.629, the “Normalised to DMSO” value (M-833 0.15625 uM, Pop D-F7 replicate 1) was 104.635 and the “Normalised to DMSO” value (M-833 0.15625 uM, Pop D-F7 replicate 3) was 103.875. For the same molecule, the “Normalised to DMSO” value (M-833 0.3125 uM, Pop D-F7 replicate 1) was 106.297, the “Normalised to DMSO” value (M-833 0.3125 uM, Pop D-F7 replicate 3) was 100.415 and the “Normalised to DMSO” value (M-833 0.625 uM, Pop D-F7 replicate 1) was 98.8413. The “Normalised to DMSO” value (M-833 0.625 uM, Pop D-F7 replicate 3) was 99.3081, the “Normalised to DMSO” value (M-833 1.25 uM, Pop D-F7 replicate 1) was 89.7985 and the “Normalised to DMSO” value (M-833 1.25 uM, Pop D-F7 replicate 3) was 89.8985. For the same molecule, the “Normalised to DMSO” value (M-833 2.5 uM, Pop D-F7 replicate 1) was 74.9622, the “Normalised to DMSO” value (M-833 2.5 uM, Pop D-F7 replicate 3) was 59.8708 and the “Normalised to DMSO” value (M-833 5 uM, Pop D-F7 replicate 1) was 50.7053. For the same molecule, the “Normalised to DMSO” value (M-833 5 uM, Pop D-F7 replicate 3) was 43.6808, the “Normalised to DMSO” value (M-833 10 uM, Pop D-F7 replicate 1) was 28.7406 and the “Normalised to DMSO” value (M-833 10 uM, Pop D-F7 replicate 3) was 39.9446. It also gave an inhibition at 0.0390625 µM (Plasmodium falciparum, M-833 0.0390625 uM, Pop D-F7 replicate 1, read-out: % Inhibition) of -2.75%, an inhibition at 0.0390625 µM (Plasmodium falciparum, M-833 0.0390625 uM, Pop D-F7 replicate 3, read-out: % Inhibition) of -4.01% and an inhibition at 0.078125 µM (Plasmodium falciparum, M-833 0.078125 uM, Pop D-F7 replicate 1, read-out: % Inhibition) of -3.5%. For the same molecule, the inhibition at 0.078125 µM (Plasmodium falciparum, M-833 0.078125 uM, Pop D-F7 replicate 3, read-out: % Inhibition) was -2.63%, the inhibition at 0.15625 µM (Plasmodium falciparum, M-833 0.15625 uM, Pop D-F7 replicate 1, read-out: % Inhibition) was -4.63% and the inhibition at 0.15625 µM (Plasmodium falciparum, M-833 0.15625 uM, Pop D-F7 replicate 3, read-out: % Inhibition) was -3.87%. The inhibition at 0.3125 µM (Plasmodium falciparum, M-833 0.3125 uM, Pop D-F7 replicate 1, read-out: % Inhibition) was -6.3%, the inhibition at 0.3125 µM (Plasmodium falciparum, M-833 0.3125 uM, Pop D-F7 replicate 3, read-out: % Inhibition) was -0.415% and the inhibition at 0.625 µM (Plasmodium falciparum, M-833 0.625 uM, Pop D-F7 replicate 1, read-out: % Inhibition) was 1.16%. It also gave an inhibition at 0.625 µM (Plasmodium falciparum, M-833 0.625 uM, Pop D-F7 replicate 3, read-out: % Inhibition) of 0.692%, an inhibition at 1.25 µM (Plasmodium falciparum, M-833 1.25 uM, Pop D-F7 replicate 1, read-out: % Inhibition) of 10.2% and an inhibition at 1.25 µM (Plasmodium falciparum, M-833 1.25 uM, Pop D-F7 replicate 3, read-out: % Inhibition) of 10.1%. It also gave an inhibition at 2.5 µM (Plasmodium falciparum, M-833 2.5 uM, Pop D-F7 replicate 1, read-out: % Inhibition) of 25%, an inhibition at 2.5 µM (Plasmodium falciparum, M-833 2.5 uM, Pop D-F7 replicate 3, read-out: % Inhibition) of 40.1% and an inhibition at 5 µM (Plasmodium falciparum, M-833 5 uM, Pop D-F7 replicate 1, read-out: % Inhibition) of 49.3%. The inhibition at 5 µM (Plasmodium falciparum, M-833 5 uM, Pop D-F7 replicate 3, read-out: % Inhibition) was 56.3%, the inhibition at 10 µM (Plasmodium falciparum, M-833 10 uM, Pop D-F7 replicate 1, read-out: % Inhibition) was 71.3% and the inhibition at 10 µM (Plasmodium falciparum, M-833 10 uM, Pop D-F7 replicate 3, read-out: % Inhibition) was 60.1%. For the same molecule, the inhibition at 0.0390625 µM (Plasmodium falciparum, Pop D-F7 replicate 1, M-833 0.0390625 uM) was -0.465%, the inhibition at 0.078125 µM (Plasmodium falciparum, Pop D-F7 replicate 1, M-833 0.078125 uM) was -0.401% and the inhibition at 0.15625 µM (Plasmodium falciparum, Pop D-F7 replicate 1, M-833 0.15625 uM) was 3.58%. For the same molecule, the inhibition at 0.3125 µM (Plasmodium falciparum, Pop D-F7 replicate 1, M-833 0.3125 uM) was 2.21%, the inhibition at 0.625 µM (Plasmodium falciparum, Pop D-F7 replicate 1, M-833 0.625 uM) was 8.79% and the inhibition at 1.25 µM (Plasmodium falciparum, Pop D-F7 replicate 1, M-833 1.25 uM) was 10.1%. The inhibition at 2.5 µM (Plasmodium falciparum, Pop D-F7 replicate 1, M-833 2.5 uM) was 29%, the inhibition at 5 µM (Plasmodium falciparum, Pop D-F7 replicate 1, M-833 5 uM) was 45.3% and the inhibition at 10 µM (Plasmodium falciparum, Pop D-F7 replicate 1, M-833 10 uM) was 71.1%. For the same molecule, the EC50 (Plasmodium falciparum, read-out: EC50 (95% confidence interval)) was 2970 nM, the “Normalised to DMSO” value (Pop D-F7 replicate 1, M-833 0.0390625 uM) was 100.465 and the “Normalised to DMSO” value (Pop D-F7 replicate 1, M-833 0.078125 uM) was 100.401. The “Normalised to DMSO” value (Pop D-F7 replicate 1, M-833 0.15625 uM) was 96.4217, the “Normalised to DMSO” value (Pop D-F7 replicate 1, M-833 0.3125 uM) was 97.7856 and the “Normalised to DMSO” value (Pop D-F7 replicate 1, M-833 0.625 uM) was 91.2067. The “Normalised to DMSO” value (Pop D-F7 replicate 1, M-833 1.25 uM) was 89.8748, the “Normalised to DMSO” value (Pop D-F7 replicate 1, M-833 2.5 uM) was 70.9884 and the “Normalised to DMSO” value (Pop D-F7 replicate 1, M-833 5 uM) was 54.6534. The “Normalised to DMSO” value (Pop D-F7 replicate 1, M-833 10 uM) was 28.9313.
